Entries after “also recorded” stand apart in the source; their conditions may differ.
What was measured:
Assay type in all cases: cell-based
human TM cells [1] = experiment: Intracellular volume of human TM cells (14C-urea/14C-sucrose water space or COULTER COUNTER electronic cell sizing), isotonic medium; conditions: human TM cells
Protocol: The intracellular volume of human and bovine TM cells was evaluated by two methods: 1) radioisotopic evaluation of TM monolayer intracellular water space using ^14C-urea and ^14C-sucrose as markers of total and extracellular space, respectively; and 2) electronic cell sizing of suspended TM cells, using a COULTER COUNTER™ assay (Coulter Electronics, Ltd., Hialeah, Fla.). Details of these methods have been described previously by O'Donnell (O'Donnell, M. E., supra, 1993) the entirety of which is incorporated herein by reference.
By the first method, cell monolayers were preequilibrated for 30 minutes in Hepes MEM at 37° C. in an air atmosphere, then incubated for 20 minutes in Hepes MEM containing 0 or 10 μM bumetamide, ethacrynic acid, or other agents to be tested, and finally incubated for 10 minutes in the same medium containing either ^14C-urea or ^14C-sucrose (both at 1 μCi/ml). Monolayers were then rinsed with isotonic ice-cold MgCl2 and radioactivity of SDS extracts determined by liquid scintillation. Specific activities (counts per minute/ml) of ^14C-urea and ^14C-sucrose in the assay medium were determined and used to calculate water space associated with trapped radioactivity (expressed as μl/mg protein. Intracellular volume was calculated as the difference between the water space determined for ^14C-urea (a marker for intracellular plus trapped extracellular space) and ^14C-sucrose (a marker for trapped extracellular space).
By the second method, TM cells were trypsinized briefly in Ca-free medium, then rinsed with medium containing trypsin inhibitor and suspended in Hepes MEM. Mean cell volumes were then analyzed by electronic cell sizing on a COULTER COUNTER™ radioassay (Model ZM) with channelizer (C256), using at least 50,000 cells per data point and an orifice diameter of 140 μm. Aliquots of suspended cells were diluted into Hepes MEM containing the tonicity and/or agents to be evaluated. Mean cell volumes of each suspension aliquot were followed over time, starting at 1 minute after addition of cells to the assay media. Cell suspensions were maintained at 37° C. throughout the assay period. Absolute volumes (picoliters/cell) were calculated from distribution curves of cell diameter, using a standard curve generated by polystyrene latex beads of known diameter.
Human TM cells were exposed to isotonic medium ±niflumic acid (10 or 100 μM)±10 μM bumetamide. Cell volume was assessed by COULTER COUNTER™ electronic cell sizing over the time course shown, using TM cells in suspension. Note that niflumic acid (NA) alone decreases volume of the TM cells and that exposing the cells to NA plus bumetamide causes a further decrease in TM cell volume. Data represent means of two experiments (all conditions shown tested in both experiments).

human TM cells [2] = experiment: Whole cell patch clamp ion conductances of human TM cells
Protocol: Further studies conducted with agents known to block Cl and K channels attenuate the swelling-activated regulatory volume decrease in TM cells and niflumic acid reduces both cell volume and intracellular [Cl] of TM cells. In these studies, human TM cells were cultured from donor eyes and used between passages three and eight. Routine whole cell patch clamp methods were used to assess conductances of TM cells in isotonic (290 mOsm) and hypotonic (230 mOsm) media, with or without NPPB, DIDS, TEA or niflumic acid. Conductances were determined from current/voltage plots, generated using a ramp protocol. […] The reversal potential observed in the presence of hypotonic medium was close to the calculated reversal potential for Cl. Switching to an external medium containing reduced Cl shifted the reversal potential toward that calculated for the low Cl medium. Treating the TM cells with the Cl channel blocker NPPB (100 μM) abolished the swelling-activated conductance in a manner reversed by subsequent washout of NPPB. […] Finally, treatment of the cells with the K channel blocker TEA (1 mM) also abolished the niflumic acid-activated TM cell conductance.
Human TM and SC cells grown to subconfluence are gently trypsinized on the day of the experiment and immediately exposed to trypsin-neutralizing solution and then allowed to settle onto standard square (22×22-mm) glass coverslips for 30 minutes before use. Routine patch clamp methods were used as described previously Barakat, A. I., et al., Circulation Research, 85: 820-828, 1999; Hamill, O. P. et al., Pflügers Archives, 391: 85-100, 1981; Mauro, T. et al., J of Invest. Dermatology, 105: 203-208, 1995; Pappone, P. A. et al., J. of Physiology, 306:377-410, 1980; Pappone, P. A. et al., J of Gen. Physiology, 106: 231-258, 1995; Pappone, P. A. et al., Amer. J. of Physiology: Cell Physiology, 264: C1014-C1019, 1993; Wilson, S. M. et al., J. of Gen. Physiology, 113: 125-138, 1999. Using the whole cell patch clamp mode, conductances were assessed for isotonic and hypotonic media. By assessing current/voltage (I/V) relationships and reversal potentials for the TM and SC cells while using specific concentrations of Cl in the pipette and bath media, the nature of the conductances observed can be determined.
Whole cell currents were measured at room temperature in a Warner recording/perfusion chamber (Warner Instrument Corp.) using standard whole-cell patch clamp techniques as described previously, Lucero, M. T. et al., J. of Gen. Physiology, 95:523-544, 1999. Thick-walled borosilicate capillaries (Sutter Instruments, Inc., Novato, Calif.) were used to manufacture pipettes with resistances of 3 to 5 MW. The voltage offset between the patch pipette and the bath solution were nulled immediately before patch formation. An agar bridge containing […] KCl was used to ground the bath solution. Voltages were recorded from a patch-clamp amplifier (AXOPATCH 200A, Axon Instruments). Data was collected on a Macintosh personal computer using Pulse+Pulsefit software (HEKA Elektronik). Whole-cell currents were recorded from single (sub confluent) cells with membrane capacitances nulled through the patch-clamp amplifier. The voltage ramp protocol included a voltage step from the holding potential to +60 mV for 40 ms followed by a ramp to −100 mV over a period of 400 ms followed by a return to the holding potential. During the protocol, voltage ramps were conducted once every 5 seconds for 10 minutes, yielding 120 traces. Conductances were computed by taking the derivative of a least-squares straight line fit to the I-V data plots using Igor Pro Software (Wavemetrics, Inc.). In cases in which the I-V plots are not linear over the entire voltage ramp (as in FIGS. 6AB), computation of the whole-cell conductance were restricted to a linear range, typically 0 to +60 mV. […]

TM cells = experiment: Intracellular [Cl] of TM cells; conditions: niflumic acid 100 μM

Compound: O=C(O)c1cccnc1Nc1cccc(C(F)(F)F)c1 [niflumic acid]
- TM cell volume in isotonic medium (resting volume) (human TM cells [1]; niflumic acid 10 μM): decreased
- TM cell volume in isotonic medium (resting volume) (human TM cells [1]; niflumic acid 100 μM): decreased
- reversal potential of the niflumic acid-activated conductance (human TM cells [2]; human TM cell, 100 μM niflumic acid, calculated reversal potentials Cl −22 mV, K −82 mV): very close to the Cl reversal potential; also recorded: quite close to the calculated reversal potential for Cl
- niflumic acid-activated conductance, dependence on bath ions (human TM cells [2]; human TM cells, niflumic acid 100 μM, K-free or Cl-free medium): abolished in K-free medium but not in Cl-free medium
- ion conductance of TM cells (human TM cells [2]; normal human TM cells, isotonic bath, niflumic acid 100 μM): activate an ion conductance; also recorded: rapid increase in conductance
- intracellular [Cl] of the TM cells (TM cells): significantly reduced

Reference: US20020177625A1, “Class of glaucoma drugs to enhance aqueous humor outflow and lower intra-ocular pressure” (The Regents of the University of California, a California …, priority 2001, published 2002)
